Starred links: 1 amine or outer side, 2 acyl side, 3 side chain; linkers in the order of their positions; H or OH if unused. Positions of bridges follow the written chain, without caps; N, C: chain ends. Non-standard residues stand in square brackets, D forms with d. Residues, ends and D or L forms follow the SMILES beside them. *: point of attachment. Dihydroorotyl(S) = O=C1C[C@@H](C(=O)*)NC(=O)N1; Phe(2-CF3) = N[C@@H](Cc1ccccc1C(F)(F)F)C(=O)O; Phe(3-Cl) = N[C@@H](Cc1cccc(Cl)c1)C(=O)O; X3 = O=C([C@H](CCNC1=NCCN1)N[*:1])[*:2]; Phe(3-Me) = Cc1cccc(C[C@H](N)C(=O)O)c1; Phe(4-F) = N[C@@H](Cc1ccc(F)cc1)C(=O)O; 2Nal = N[C@@H](Cc1ccc2ccccc2c1)C(=O)O; Bta = N[C@@H](Cc1csc2ccccc12)C(=O)O; cisHyp = O=C(O)[C@@H]1C[C@H](O)CN1; Hyp = O=C(O)[C@@H]1C[C@@H](O)CN1; d(hLeu) = CC(C)CC[C@@H](N)C(=O)O; 2Thi = N[C@@H](Cc1cccs1)C(=O)O; Cha = N[C@@H](CC1CCCCC1)C(=O)O; dCha = N[C@H](CC1CCCCC1)C(=O)O; NHPhenethyl = c1ccc(CCN*)cc1; Phg = N[C@H](C(=O)O)c1ccccc1; Nicotinoyl = O=C(c1cccnc1)*; Pip = O=C(O)[C@@H]1CCCCN1; Nle = CCCC[C@H](N)C(=O)O; Orn = NCCC[C@H](N)C(=O)O; Aze = O=C(O)[C@@H]1CCN1; Dab = NCC[C@H](N)C(=O)O; X18 = c1cc(C*)ccn1; Ms = CS(=O)(=O)*; βAla = NCCC(=O)O; tBu = CC(C)(C)*

The source of these data is patent US20080161232A1, “C5a Receptor Antagonist” (JERINI AG, priority 2005, published 2008).

The target in the test is T1, human C5aR(CD88) (Homo sapiens, UniProt P21730).
T1 construct: expressed in transfected cells; host or cells: rat basophilic leukemia cells (RBL)
T1 sequence (P21730 1-350): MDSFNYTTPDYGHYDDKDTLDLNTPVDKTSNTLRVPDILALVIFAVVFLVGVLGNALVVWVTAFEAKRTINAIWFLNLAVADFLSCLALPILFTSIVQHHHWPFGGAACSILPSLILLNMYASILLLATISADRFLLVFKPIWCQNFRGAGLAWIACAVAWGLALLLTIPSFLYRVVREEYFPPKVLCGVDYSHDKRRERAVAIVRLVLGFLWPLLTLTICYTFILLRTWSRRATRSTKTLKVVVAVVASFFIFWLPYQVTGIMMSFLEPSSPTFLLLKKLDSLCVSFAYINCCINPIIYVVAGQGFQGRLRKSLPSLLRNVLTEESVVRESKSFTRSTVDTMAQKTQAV
The experiment in a line: Determination of the IC50 value in an enzyme release assay (functional assay, antagonistic activity). It counts as cell-based. To be noted: antagonistic activity; IC50 group in enzyme release assay, RBL cells expressing human C5aR(CD88); read-out: activity (group).
`CC(=O)N[C@@H](Cc1ccccc1)C(=O)N[C@@H](CCNC1=NCCN1)C(=O)N1CCC[C@H]1C(=O)N[C@H](CC1CCCCC1)C(=O)N[C@@H](Cc1csc2ccccc12)C(=O)N[C@@H](Cc1ccccc1)C(N)=O` [Compound 220, Ac-Phe-Fcn-Pro-cha-Bta-Phe-NH2] (Ac-F[X3]P[dCha][Bta]F-NH2): the IC50 lay within 10 to 20 nM. Take `NCCC[C@H](NC(=O)[C@@H](N)Cc1ccccc1)C(=O)N1CCC[C@H]1C(=O)N[C@H](CC1CCCCC1)C(=O)N[C@@H](Cc1c[nH]c2ccccc12)C(=O)N[C@@H](Cc1ccccc1)C(N)=O` [Compound 74, H-Phe-Orn-Pro-cha-Trp-Phe-NH2] (H-F[Orn]P[dCha]WF-NH2): the IC50 is 50 to 200 nM. `CC(=O)N[C@@H](Cc1ccccc1)C(=O)N[C@@H](CCCN)C(=O)N1CCC[C@H]1C(=O)N[C@H](CC1CCCCC1)C(=O)N[C@@H](Cc1csc2ccccc12)C(=O)N[C@@H](Cc1cccs1)C(N)=O` [Compound 261, Ac-Phe-Orn-Pro-cha-Bta-Thi-NH2] (Ac-F[Orn]P[dCha][Bta][2Thi]-NH2): the IC50 was 10 to 20 nM. Turning to `CC(=O)N[C@@H](Cc1ccccc1)C(=O)N[C@@H](CCCN)C(=O)N1CCC[C@H]1C(=O)N[C@H](CCC(C)C)C(=O)N[C@@H](Cc1csc2ccccc12)C(=O)N[C@@H](Cc1ccc2ccccc2c1)C(N)=O` [Compound 271, Ac-Phe-Orn-Pro-hle-Bta-2Ni—NH2] (Ac-F[Orn]P[d(hLeu)][Bta][2Nal]-NH2), the IC50 was in the range of 50 to 200 nM.

For `CCCC[C@@H]1NC(=O)[C@H](Cc2c[nH]c3ccccc23)NC(=O)[C@H](Cc2cccc(C)c2)NC(=O)[C@@H]2C[C@@H](O)CN2C(=O)[C@@H](NC(=O)[C@H](Cc2ccccc2)NC(C)=O)CCCNC1=O` [Compound 182, Ac-Phe-[Orn-Hyp-Mmf-Trp-Nle]] (Ac-F[Orn][Hyp][Phe(3-Me)]W[Nle]; lactam 2-C), the IC50 was 50 to 200 nM. On to `CC(=O)N[C@@H](Cc1cccs1)C(=O)N[C@@H](CCCN)C(=O)N1CCC[C@H]1C(=O)N[C@H](CC1CCCCC1)C(=O)N[C@@H](Cc1c[nH]c2ccccc12)C(=O)N[C@@H](Cc1ccccc1)C(N)=O` [Compound 77, Ac-Thi-Orn-Pro-cha-Trp-Phe-NH2] (Ac-[2Thi][Orn]P[dCha]WF-NH2), for which the IC50 lay in the range of 50 to 200 nM. Then `CC(=O)N[C@@H](Cc1ccccc1)C(=O)N[C@@H](CCCN)C(=O)N1CC[C@H]1C(=O)N[C@H](CC1CCCCC1)C(=O)N[C@@H](Cc1csc2ccccc12)C(=O)NCCc1ccccc1` [Compound 73, Ac-Phe-Orn-Aze-cha-Bta-NH—CH2—CH2-Ph] (Ac-F[Orn][Aze][dCha][Bta]-NHPhenethyl), with 200 to 2000 nM; and `CC(=O)N[C@@H](Cc1ccccc1)C(=O)N[C@@H](CCCN)C(=O)N1CCC[C@H]1C(=O)N[C@H](CSC(C)(C)C)C(=O)N[C@@H](Cc1cccc(Cl)c1)C(=O)N[C@@H](Cc1ccccc1)C(N)=O` [Compound 265, Ac-Phe-Orn-Pro-ctb-Mcf-Phe-NH2] (Ac-F[Orn]P[dC](tBu)[Phe(3-Cl)]F-NH2), with 50 to 200 nM; and `CC(=O)N[C@@H](Cc1ccccc1)C(=O)N[C@@H](CCCN)C(=O)N1C[C@H](O)C[C@H]1C(=O)N[C@H](CC1CCCCC1)C(=O)N[C@@H](Cc1c[nH]c2ccccc12)C(=O)N[C@@H](Cc1ccccc1)C(N)=O` [Compound 93, Ac-Phe-Orn-Hyp-cha-Trp-Phe-NH2] (Ac-F[Orn][Hyp][dCha]WF-NH2), with 200 to 2000 nM.

As to `CCCC[C@@H]1NC(=O)[C@H](Cc2ccc(F)cc2)NC(=O)[C@@H](CCC(C)C)NC(=O)[C@@H]2C[C@@H](O)CN2C(=O)[C@@H](NC(=O)[C@H](Cc2ccccc2)NC(C)=O)CCCNC1=O` [Compound 179, Ac-Phe-[Orn-Hyp-hle-Pff-Nle]] (Ac-F[Orn][Hyp][d(hLeu)][Phe(4-F)][Nle]; lactam 2-C), the IC50 is 50 to 200 nM. On to `CC(=O)N[C@@H](Cc1ccccc1)C(=O)N[C@@H](CCCN)C(=O)N[C@@H](CO)C(=O)N[C@H](CC1CCCCC1)C(=O)N[C@@H](Cc1csc2ccccc12)C(=O)N[C@@H](Cc1ccccc1)C(N)=O` [Compound 309, Ac-Phe-Orn-Ser-cha-Bta-Phe-NH2] (Ac-F[Orn]S[dCha][Bta]F-NH2), for which the IC50 was in the range of 20 to 50 nM. Then `CC(=O)N[C@@H](Cc1ccccc1)C(=O)N[C@H]1CCCNC(=O)[C@H](Cc2ccccc2)NC(=O)[C@H](Cc2csc3ccccc23)NC(=O)[C@@H](CCC(C)C)NC(=O)[C@@H]2CCCCN2C1=O` [Compound 185, Ac-Phe-[Orn-Pip-hle-Bta-Phe]] (Ac-F[Orn][Pip][d(hLeu)][Bta]F; lactam 2-C), with 50 to 200 nM; and `CCCC[C@@H]1NC(=O)[C@H](Cc2c[nH]c3ccccc23)NC(=O)[C@@H](CCC(C)C)NC(=O)[C@@H]2C[C@@H](O)CN2C(=O)[C@@H](NC(=O)[C@@H](N)Cc2ccccc2)CCCNC1=O` [Compound 369, H-Phe-[Orn-Hyp-hle-Trp-Nle]] (H-F[Orn][Hyp][d(hLeu)]W[Nle]; lactam 2-C), with 20 to 50 nM; and `CC(=O)N[C@@H](Cc1cccs1)C(=O)N[C@H]1CCCNC(=O)[C@H](Cc2ccccc2)NC(=O)[C@H](Cc2csc3ccccc23)NC(=O)[C@@H](CCC(C)C)NC(=O)[C@@H]2CCCN2C1=O` [Compound 311, Ac-Thi-[Orn-Pro-hle-Bta-Phe]] (Ac-[2Thi][Orn]P[d(hLeu)][Bta]F; lactam 2-C), with 50 to 200 nM. Then `CC(=O)N[C@@H](Cc1ccccc1)C(=O)N[C@@H](CCCCN)C(=O)N[C@@H](C)C(=O)N[C@@H](CC1CCCCC1)C(=O)N[C@@H](C)C(=O)N[C@@H](CC(C)C)C(=O)N[C@H](C)C(=O)N[C@@H](Cc1ccc(O)cc1)C(=O)O` [compound 60] (Ac-FKA[Cha]AL[dA]Y-OH), with 200 to 2000 nM; and `CC(C)CC[C@@H](NC(=O)[C@@H]1C[C@@H](O)CN1C(=O)[C@H](CCCN)NC(=O)[C@H](Cc1ccccc1)NC(=O)[C@@H]1CC(=O)NC(=O)N1)C(=O)N[C@@H](Cc1ccc(F)cc1)C(=O)N[C@@H](Cc1ccccc1)C(N)=O` [Compound 349, Hoo-Phe-Orn-Hyp-hle-Pff-Phe-NH2] ({Dihydroorotyl(S)}-F[Orn][Hyp][d(hLeu)][Phe(4-F)]F-NH2), with 50 to 200 nM; and `CC(=O)N[C@@H](Cc1ccccc1)C(=O)N[C@@H](CCCN)C(=O)N1CCC[C@H]1C(=O)N[C@H](CCC(C)C)C(=O)N[C@@H](Cc1ccccc1C(F)(F)F)C(=O)N[C@@H](Cc1ccccc1)C(N)=O` [Compound 296, Ac-Phe-Orn-Pro-hle-Otf-Phe-NH2] (Ac-F[Orn]P[d(hLeu)][Phe(2-CF3)]F-NH2), with 50 to 200 nM. `CC(=O)N[C@@H](Cc1ccccc1)C(=O)N[C@@H](CCCNS(C)(=O)=O)C(=O)N1CCC[C@H]1C(=O)N[C@H](CC1CCCCC1)C(=O)N[C@@H](Cc1csc2ccccc12)C(=O)N[C@@H](Cc1ccccc1)C(N)=O` [Compound 227, Ac-Phe-G23-Pro-cha-Bta-Phe-NH2] (Ac-F[Orn](Ms)P[dCha][Bta]F-NH2): the IC50 is 50 to 200 nM. Then `CC(=O)NCC(=O)N[C@@H](Cc1ccccc1)C(=O)N[C@@H](CCCN)C(=O)N1CC[C@H]1C(=O)N[C@H](CC1CCCCC1)C(=O)N[C@@H](Cc1csc2ccccc12)C(=O)N[C@@H](Cc1ccccc1)C(N)=O` [Compound 154, Ac-Gly-Phe-Orn-Aze-cha-Bta-Phe-NH2] (Ac-GF[Orn][Aze][dCha][Bta]F-NH2), with 10 to 20 nM; and `CCCC[C@@H]1NC(=O)[C@H](Cc2ccc(F)cc2)NC(=O)[C@@H](CCC(C)C)NC(=O)[C@@H]2CCCN2C(=O)[C@@H](NC(=O)[C@H](Cc2ccccc2)NC(=O)CCN)CCCNC1=O` [Compound 343, H-Bal-Phe-[Orn-Pro-hle-Pff-Nle]] (H-[βAla]F[Orn]P[d(hLeu)][Phe(4-F)][Nle]; lactam 3-C), with 50 to 200 nM; and `CC(=O)N[C@@H](Cc1ccccc1)C(=O)N[C@@H](CCN)C(=O)N1CCC[C@H]1C(=O)N[C@H](CC1CCCCC1)C(=O)N[C@@H](Cc1csc2ccccc12)C(=O)N[C@@H](Cc1ccccc1)C(N)=O` [Compound 215, Ac-Phe-Dab-Pro-cha-Bta-Phe-NH2] (Ac-F[Dab]P[dCha][Bta]F-NH2), with 10 to 20 nM. Then `CCCC[C@@H]1NC(=O)[C@H](Cc2c[nH]c3ccccc23)NC(=O)[C@@H](CC2CCCCC2)NC(=O)[C@@H]2C[C@H](O)CN2C(=O)[C@@H](NC(=O)[C@H](Cc2ccccc2)NC(C)=O)CCCNC1=O` [Compound 175, Ac-Phe-[Orn-Chy-cha-Trp-Nle]] (Ac-F[Orn][cisHyp][dCha]W[Nle]; lactam 2-C), with 50 to 200 nM. The figure for `CC(=O)N[C@@H](Cc1ccccc1)C(=O)N[C@H]1CCCNC(=O)[C@H](CSCc2ccncc2)NC(=O)[C@H](Cc2c[nH]c3ccccc23)NC(=O)[C@@H](CC2CCCCC2)NC(=O)[C@@H]2CCCN2C1=O` [compound 15] (Ac-F[Orn]P[dCha]WC(X18); lactam 2-C) is 200 to 2000 nM; for `CCCC[C@@H]1NC(=O)[C@H](Cc2ccc(F)cc2)NC(=O)[C@@H](CC2CCCCC2)NC(=O)[C@@H]2CCCN2C(=O)[C@@H](NC(=O)[C@H](Cc2ccccc2)NC(C)=O)CCCNC1=O` [Compound 186, Ac-Phe-[Orn-Pro-cha-Pff-Nle]] (Ac-F[Orn]P[dCha][Phe(4-F)][Nle]; lactam 2-C) it is 50 to 200 nM.

`O=C(N[C@@H](Cc1ccccc1)C(=O)N[C@H]1CCCNC(=O)[C@H](Cc2ccccc2)NC(=O)[C@H](Cc2c[nH]c3ccccc23)NC(=O)[C@@H](CC2CCCCC2)NC(=O)[C@@H]2C[C@@H](O)CN2C1=O)c1cccnc1` [Compound 326, Fbn-Phe-[Orn-Hyp-cha-Trp-Phe]] (Nicotinoyl-F[Orn][Hyp][dCha]WF; lactam 2-C): the IC50 lay within 50 to 200 nM.

For `CC(=O)N[C@@H](Cc1ccccc1)C(=O)N[C@@H](CCCN)C(=O)N1CCC[C@H]1C(=O)N[C@H](CC1CCCCC1)C(=O)N[C@@H](Cc1c[nH]c2ccccc12)C(=O)N[C@H](C(N)=O)c1ccccc1` [Compound 111, Ac-Phe-Orn-Pro-cha-Trp-Phg-NH2] (Ac-F[Orn]P[dCha]W[Phg]-NH2), the IC50 lay in the range of 200 to 2000 nM.
